Laboratory results reported in patent publication US20240182420A1, “MICROBIOCIDAL ISONICOTINIC AMIDE DERIVATIVES” (SYNGENTA CROP PROTECTION AG, priority 2021, published 2024).

Key:
[1] = test system: Glomerella lagenarium syn Colletotrichum lagenarium; experiment: Glomerella lagenarium syn. Colletotrichum lagenarium (anthracnose), liquid culture growth inhibition; assay type: cell-based; conditions: Colletotrichum orbiculare, PDB nutrient broth, 24° C., 72 hrs, 620 nm, vs untreated control
Method: (§1) Conidia of the fungus from cryogenic storage were directly mixed into nutrient broth (PDB potato dextrose broth). A DMSO solution of the test compounds was placed into a microtiter plate (96-well format) and the nutrient broth containing the fungal spores was added to it. The test plates were incubated at 24° C. and the inhibition of growth was determined photometrically after 72 hrs at 620 nm.

[2] = test system: Botryotinia fuckeliana syn. Botrytis cinerea; experiment: Botryotinia fuckeliana syn. Botrytis cinerea (gray mould), liquid culture growth inhibition; assay type: cell-based; conditions: PDB nutrient broth, 24° C., 72 hrs, photometric, vs untreated control
Method: as §1, with “hrs.” for “hrs at 620 nm.”

SMILES	inhibition of growth at 20 ppm [1] [%]	inhibition of growth at 20 ppm [2] [%]
Cc1nccc(C(=O)NCC(F)c2ccc(Cl)cc2Cl)c1Oc1cccc(C2CC2)c1 (stereo not drawn) [Compound 1.12, 3-(3-cyclopropyl-phenoxy)-N-[2-(2,4-dichlorophenyl)-2-fluoro-ethyl]-2-methyl-pyridine-4-carboxamide]	≥ 80	
Cc1cc(C(=O)NCC(F)c2ccc(Cl)cc2Cl)c(Oc2cccc(C3CC3)c2)c(Cl)n1 (stereo not drawn) [Compound 1.17, 2-chloro-3-(3-cyclopropyl-phenoxy)-N-[2-(2,4-dichlorophenyl)-2-fluoro-ethyl]-6-methyl-pyridine-carboxamide]	≥ 80	≥ 80
O=C(NCCc1ccc(Cl)cc1Cl)c1cc(C(F)(F)F)ncc1Oc1cccc(C2CC2)c1 [Compound 1.19, 5-(3-cyclopropyl-phenoxy)-N-[2-(2,4-dichlorophenyl)ethyl]-2-(trifluoromethyl) pyridine-4-carboxamide]	≥ 80	
N#Cc1ccccc1CCNC(=O)c1cc(Cl)ncc1Oc1cccc(C2CC2)c1 [Compound 1.23, 2-chloro-N-[2-(2-cyanophenyl)ethyl]-5-(3-cyclopropyl-phenoxy)pyridine-4-carboxamide]	≥ 80	
O=C(NCCc1ccc(Cl)cc1)c1cc(Cl)ncc1Oc1cccc(C2CC2)c1 [Compound 1.24, 2-chloro-N-[2-(4-chlorophenyl)ethyl]-5-(3-cyclopropyl-phenoxy)pyridine-4-carboxamide]	≥ 80	≥ 80
COc1ccc(CCNC(=O)c2cc(Cl)ncc2Oc2cccc(C3CC3)c2)cc1OC [Compound 1.26, 2-chloro-5-(3-cyclopropyl-phenoxy)-N-[2-(3,4-dimethoxyphenyl)ethyl]pyridine-4-carboxamide]	≥ 80	
O=C(NCCc1ccccc1)c1cc(Cl)ncc1Oc1cccc(C2CC2)c1 [Compound 1.29, 2-chloro-5-(3-cyclopropyl-phenoxy)-N-(2-phenylethyl) pyridine-4-carboxamide]	≥ 80	
O=C(NCCc1ccc(F)cc1)c1cc(Cl)ncc1Oc1cccc(C2CC2)c1 [Compound 1.31, 2-chloro-5-(3-cyclopropyl-phenoxy)-N-[2-(4-fluorophenyl)ethyl]pyridine-4-carboxamide]	≥ 80	
O=C(NCC(F)(F)c1ccc(F)cc1F)c1cc(Cl)ncc1Oc1cccc(C2CC2)c1 [Compound 1.32, 2-chloro-5-(3-cyclopropyl-phenoxy)-N-[2-(2,4-difluorophenyl)-2,2-difluoro-ethyl]pyridine-4-carboxamide]	≥ 80	≥ 80
O=C(NCCc1ccccc1Cl)c1cc(Cl)ncc1Oc1cccc(C2CC2)c1 [Compound 1.33, 2-chloro-N-[2-(2-chlorophenyl)ethyl]-5-(3-cyclopropyl-phenoxy)pyridine-4-carboxamide]	≥ 80	
N#Cc1ccc(CCNC(=O)c2cc(Cl)ncc2Oc2cccc(C3CC3)c2)cc1 [Compound 1.34, 2-chloro-N-[2-(4-cyanophenyl)ethyl]-5-(3-cyclopropyl-phenoxy) pyridine-4-carboxamide]	≥ 80	
Cc1cc(C(=O)NC[C@H](F)c2ccc(Cl)cc2Cl)c(Oc2cccc(C3CC3)c2)cn1 [Compound 1.42, 5-(3-cyclopropyl-phenoxy)-N-[(2R)-2-(2,4-dichlorophenyl)-2-fluoro-ethyl]-2-methyl-pyridine-4-carboxamide]	≥ 80	≥ 80
O=C(NCCc1ccc(Cl)cc1Cl)c1cc(Cl)ncc1Oc1ccccc1 [Compound 1.45, 2-chloro-N-[2-(2,4-dichlorophenyl)ethyl]-5-phenoxy-pyridine-4-carboxamide]		≥ 80
Cc1cccc(Oc2cnc(Cl)cc2C(=O)NCCc2ccc(Cl)cc2)c1 [Compound 1.47, 2-chloro-N-[2-(4-chlorophenyl)ethyl]-5-(3-methylphenoxy) pyridine-4-carboxamide]	≥ 80	≥ 80
Cc1ccc(CCNC(=O)c2cc(Cl)ncc2Oc2cccc(C3CC3)c2)cc1 [Compound 1.53, 2-chloro-5-(3-cyclopropyl-phenoxy)-N-[2-(p-tolyl)ethyl]pyridine-4-carboxamide]	≥ 80	≥ 80
Cc1cccc(Oc2cnc(Cl)cc2C(=O)NCCc2ccccc2Cl)c1 [Compound 1.54, 2-chloro-N-[2-(2-chlorophenyl)ethyl]-5-(3-methylphenoxy) pyridine-4-carboxamide]		≥ 80

SMILES	inhibition of growth at 20 ppm [1] [%]	inhibition of growth at 20 ppm [2] [%]
COc1ccc(CCNC(=O)c2cc(Cl)ncc2Oc2cccc(C)c2)cc1 [Compound 1.55, 2-chloro-N-[2-(4-methoxyphenyl)ethyl]-5-(3-methylphenoxy) pyridine-4-carboxamide]		≥ 80
Cc1ccc(CCNC(=O)c2cc(Cl)ncc2Oc2cccc(C)c2)cc1 [Compound 1.57, 2-chloro-5-(3-methylphenoxy)-N-[2-(p-tolyl)ethyl]pyridine-4-carboxamide]	≥ 80	≥ 80
Cc1cccc(Oc2cnc(Cl)cc2C(=O)NCC(F)c2ccc(F)cc2F)c1 (stereo not drawn) [Compound 1.59, 2-chloro-N-[2-(2,4-difluorophenyl)-2-fluoro-ethyl]-5-(3-methylphenoxy) pyridine-4-carboxamide]		≥ 80
O=C(NCC(F)c1ccc(Cl)cc1Cl)c1cc(Cl)ncc1Oc1ccc(F)c(F)c1 (stereo not drawn) [Compound 1.62, 2-chloro-N-[2-(2,4-dichlorophenyl)-2-fluoro-ethyl]-5-(3,4-difluorophenoxy) pyridine-4-carboxamide]		≥ 80
CCOc1cccc(Oc2cnc(Cl)cc2C(=O)NCC(F)c2ccc(Cl)cc2Cl)c1 (stereo not drawn) [Compound 1.65, 2-chloro-N-[2-(2,4-dichlorophenyl)-2-fluoro-ethyl]-5-(3-ethoxyphenoxy) pyridine-4-carboxamide]	≥ 80	
CCc1cccc(Oc2cnc(Cl)cc2C(=O)NCC(F)c2ccc(Cl)cc2Cl)c1 (stereo not drawn) [Compound 1.66, 2-chloro-N-[2-(2,4-dichlorophenyl)-2-fluoro-ethyl]-5-(3-ethylphenoxy) pyridine-4-carboxamide]	≥ 80	≥ 80
O=C(NCC(F)c1ccc(Cl)cc1Cl)c1cc(Cl)ncc1Oc1ccccc1 (stereo not drawn) [Compound 1.67, 2-chloro-N-[2-(2,4-dichlorophenyl)-2-fluoro-ethyl]-5-phenoxy-pyridine-4-carboxamide]		≥ 80
O=C(NCCc1ccc(Cl)cc1Cl)c1cc(Cl)ncc1Oc1cccc(Cl)c1 [Compound 1.68, 2-chloro-5-(3-chlorophenoxy)-N-[2-(2,4-dichlorophenyl)ethyl]pyridine-4-carboxamide]	≥ 80	≥ 80
O=C(NCC(F)(F)c1ccccc1)c1cc(Cl)ncc1Oc1cccc(C2CC2)c1 [Compound 1.71, 2-chloro-5-(3-cyclopropyl-phenoxy)-N-(2,2-difluoro-2-phenyl-ethyl)pyridine-4-carboxamide]	≥ 80	≥ 80
O=C(N[C@@H]1C[C@@H]1c1ccc(F)cc1)c1cc(Cl)ncc1Oc1cccc(C2CC2)c1 [Compound 1.75, 2-chloro-5-(3-cyclopropyl-phenoxy)-N-[(1R,2R)-2-(4-fluorophenyl)cyclopropyl]pyridine-4-carboxamide]	≥ 80	≥ 80
Cc1ccc(C(F)(F)CNC(=O)c2cc(Cl)ncc2Oc2cccc(C3CC3)c2)c(C)c1 [Compound 1.76, 2-chloro-5-(3-cyclopropyl-phenoxy)-N-[2-(2,4-dimethylphenyl)-2,2-difluoro-ethyl]pyridine-4-carboxamide]	≥ 80	≥ 80
Cc1ccc(CCNC(=O)c2cc(Cl)ncc2Oc2cccc(C3CC3)c2)c(C)c1 [Compound 1.77, 2-chloro-5-(3-cyclopropyl-phenoxy)-N-[2-(2,4-dimethylphenyl)ethyl]pyridine-4-carboxamide]	≥ 80	≥ 80
CC(C)=Cc1ncc(Oc2cccc(C3CC3)c2)c(C(=O)NCC(F)c2ccc(Cl)cc2Cl)c1O (stereo not drawn) [Compound 1.89, 5-(3-cyclopropyl-phenoxy)-N-[2-(2,4-dichlorophenyl)-2-fluoro-ethyl]-3-hydroxy-2-(2-methylprop-1-enyl)pyridine-4-carboxamide]	≥ 80	≥ 80
Cc1cc(C(=O)NCC2(c3ccc(Cl)cc3Cl)CC2)c(Oc2cccc(C3CC3)c2)cn1 [Compound 1.90, 5-(3-cyclopropyl-phenoxy)-N-[[1-(2,4-dichlorophenyl)cyclopropyl]methyl]-2-methyl-pyridine-4-carboxamide]	≥ 80	≥ 80
Cc1cncc(Oc2cccc(C3CC3)c2)c1C(=O)NC[C@@H](F)c1ccc(Cl)cc1Cl [Compound 1.93, 3-(3-cyclopropyl-phenoxy)-N-[(2S)-2-(2,4-dichlorophenyl)-2-fluoro-ethyl]-5-methyl-pyridine-4-carboxamide]	≥ 80	≥ 80
N#Cc1cncc(Oc2cccc(C3CC3)c2)c1C(=O)NCC(F)c1ccc(Cl)cc1Cl (stereo not drawn) [Compound 1.97, 3-cyano-5-(3-cyclopropyl-phenoxy)-N-[2-(2,4-dichlorophenyl)-2-fluoro-ethyl]pyridine-4-carboxamide]	≥ 80	
